ChEMBL document CHEMBL3991941, “GLEPP-1 inhibitors in the treatment of autoimmune and/or inflammatory disorders” (2011)
The source made the active and inactive calls. The calls are words filed in the database; no cut-off is given here.

Tests used:
Mus musculus [1] = test: Antiinflammatory activity in C3H mouse model of thioglycollate-induced lymphocyte recruitment assessed as decrease in blood lymphocytes at 30 mg/kg, po dosed 15 mins before thioglycollate stimulation by Beckman Coulter counting based cell counting method relative to untreated control; type: functional; parameters: scale not given: the % may be the effect or the level left
Mus musculus [2] = test: Antiinflammatory activity in C3H mouse model of thioglycollate-induced lymphocyte recruitment assessed as decrease in blood neutrophils at 30 mg/kg, po dosed 15 mins before thioglycollate stimulation by Beckman Coulter counting based cell counting method relative to untreated control; type: functional; parameters: scale not given: the % may be the effect or the level left
Mus musculus [3] = test: Antiinflammatory activity in C3H mouse model of thioglycollate-induced lymphocyte recruitment assessed as decrease in blood macrophages at 30 mg/kg, po dosed 15 mins before thioglycollate stimulation by Beckman Coulter counting based cell counting method relative to untreated control; type: functional; parameters: scale not given: the % may be the effect or the level left
Mus musculus [4] = test: Reduction in colon weight in Balb/c mouse model of dextran sodium sulfate-induced ulcerative colitis at 30 mg/kg, po dosed twice daily at days 3,4, 5 and 6 after the induction of the ulcerative colitis and measured 7 days post ulcerative colitis induction; type: functional; parameters: scale not given: the % may be the effect or the level left
Mus musculus [5] = test: Reduction in splenomegaly in Balb/c mouse model of dextran sodium sulfate-induced ulcerative colitis at 30 mg/kg, po dosed twice daily at days 3,4, 5 and 6 after the induction of the ulcerative colitis and measured 7 days post ulcerative colitis induction; type: functional; parameters: scale not given: the % may be the effect or the level left
Mus musculus [6] = test: Reduction in colon weight in Balb/c mouse model of dextran sodium sulfate-induced ulcerative colitis at 10 mg/kg, po dosed twice daily at days 3,4, 5 and 6 after the induction of the ulcerative colitis and measured 7 days post ulcerative colitis induction; type: functional; parameters: scale not given: the % may be the effect or the level left
Mus musculus [7] = test: Reduction in splenomegaly in Balb/c mouse model of dextran sodium sulfate-induced ulcerative colitis at 100 mg/kg, po dosed twice daily at days 3,4, 5 and 6 after the induction of the ulcerative colitis and measured 7 days post ulcerative colitis induction; type: functional; parameters: scale not given: the % may be the effect or the level left
Mus musculus [8] = test: Reduction in colon weight in Balb/c mouse model of dextran sodium sulfate-induced ulcerative colitis at 100 mg/kg, po dosed twice daily at days 3,4, 5 and 6 after the induction of the ulcerative colitis and measured 7 days post ulcerative colitis induction; type: functional; parameters: scale not given: the % may be the effect or the level left
Mus musculus [9] = test: Reduction in body weight loss in Balb/c mouse model of dextran sodium sulfate-induced ulcerative colitis at 10 to 100 mg/kg, po dosed twice daily at days 3,4, 5 and 6 after the induction of the ulcerative colitis and measured 7 days post ulcerative colitis induction; type: functional, organism-based

CCCCCCN(Cc1ccc(C#Cc2ccc(CCCC)cc2)cc1)c1ccc(C(=O)O)c(O)c1
Activity (Mus musculus [1]): 23% | Activity (Mus musculus [2]): 45% | Activity (Mus musculus [3]): 65%

CCCCCCN(Cc1ccc(C#Cc2ccc(C(C)(C)C)cc2)cc1)c1ccc(F)c(C(=O)O)c1
Activity (Mus musculus [1]): 13% | Activity (Mus musculus [2]): 36% | Activity (Mus musculus [3]): 42%

CCCCCCc1ccc(C#Cc2ccc(N(Cc3ccc(C(F)(F)F)cc3)C(=O)C(=O)O)cc2)cc1
Activity (Mus musculus [1]): 21% | Activity (Mus musculus [2]): 15% | Activity (Mus musculus [3]): 32%

CCCCCCN(Cc1ccc(C#Cc2ccc(CCCC)cc2)cc1)c1ccc(O)c(C(=O)O)c1
Activity (Mus musculus [4]): -28% | Activity (Mus musculus [5]): -31% | Activity (Mus musculus [1]): 47% | Activity (Mus musculus [6]): -22% | Activity (Mus musculus [7]): -65% | Activity (Mus musculus [8]): -35% | Activity (Mus musculus [2]): 44% | Activity (Mus musculus [3]): 50%

CCCCCCN(Cc1ccc(C#Cc2ccc(CCC)cc2)cc1)c1ccc(F)c(C(=O)O)c1
Activity (Mus musculus [1]): 4% | Activity (Mus musculus [2]): -6% | Activity (Mus musculus [3]): 26%

CCCCCCc1ccc(C#Cc2ccc(CN(C(=O)C(=O)O)C(C)(C)c3cccc(Cl)c3)cc2)cc1
Activity (Mus musculus [1]): 39% | Activity (Mus musculus [2]): 25% | Activity (Mus musculus [3]): 52%

O=C(O)C(=O)N(Cc1ccc(C#CCCCCCCCCCF)cc1)Cc1ccc(C(F)(F)F)cc1
Activity (Mus musculus [1]): 24% | Activity (Mus musculus [2]): 16% | Activity (Mus musculus [3]): 36%

CCCCCCN(Cc1ccccc1C#Cc1ccc(CCCC)cc1)C(=O)c1ccc(O)c(C(=O)O)c1
Activity (Mus musculus [4]): -50% | Activity (Mus musculus [5]): -25% | Activity (Mus musculus [9]): Active | Activity (Mus musculus [6]): -47% | Activity (Mus musculus [7]): -45%

CCCCCCc1ccc(C#Cc2ccc(CN(Cc3ccc(C(F)(F)F)cc3)C(=O)C(=O)O)cc2)cc1
Activity (Mus musculus [1]): 29% | Activity (Mus musculus [2]): 27% | Activity (Mus musculus [3]): 27%

CCCCCCN(Cc1ccc(C#Cc2ccc(CCCC)cc2)cc1)C(=O)c1ccc(O)c(C(=O)O)c1
Activity (Mus musculus [1]): 41% | Activity (Mus musculus [2]): 41% | Activity (Mus musculus [3]): 62%

CCCCCCN(Cc1ccc(F)c(C(=O)O)c1)c1ccc(C#Cc2ccc(CCCC)cc2)cc1
Activity (Mus musculus [1]): 8% | Activity (Mus musculus [2]): 28% | Activity (Mus musculus [3]): 32%

CCCCc1ccc(C#Cc2ccc(CN(CC3CCCC3)c3ccc(F)c(C(=O)O)c3)cc2)cc1
Activity (Mus musculus [1]): 23% | Activity (Mus musculus [2]): 36% | Activity (Mus musculus [3]): 37%
